pIC50: −log10 of the molar value.
Test system: 156681-154-R-J1-PDC complex spheroid viability
Experiment: Anticancer human tumor 156681-154-R-J1-PDC patient-derived melanoma cell line growth inhibition [CLK]
Conditions: for pIC50: curve of first compound; for viability, T/C: stronger effect = lower value
Summary of the method: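 Multi-cell-type spheroids combined patient-derived tumor cells with HUVEC endothelial cells and human mesenchymal stem cells. Paired agents were dosed in half-log steps down from about clinical Cmax, or from 10 microM where Cmax was unknown.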
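Also: spheroids exposed to the agents for seven days.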
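For viability, T/C in this document: 100% = DMSO vehicle control viability.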

COc1ccc([C@@H](O)c2cc(-c3ncnc4cc(N5CCOCC5)ccc34)c(F)cc2Cl)nn1 + CNC(=O)c1ccc(Nc2nc(OC3CCCC3)c3c(-c4ccc5nc(C)oc5c4)c[nH]c3n2)c(OC)c1
pIC50 (second compound 0.0316 µM): 5.72 | pIC50 (second compound 0.1 µM): 5.83 | pIC50 (second compound 0.316 µM): 5.96 | pIC50 (second compound 1 µM): 6.94 | pIC50 (second compound 3.16 µM): > 7.50 | pIC50 (second compound 10 µM): > 7.50 | viability, T/C (second compound 0.0316 µM, first compound 0.0316 µM): 80.7% | viability, T/C (second compound 0.0316 µM, first compound 0.1 µM): 97.2% | viability, T/C (second compound 0.0316 µM, first compound 0.316 µM): 87.8% | viability, T/C (second compound 0.0316 µM, first compound 1 µM): 69.8% | viability, T/C (second compound 0.0316 µM, first compound 3.16 µM): 34.6% | viability, T/C (second compound 0.0316 µM, first compound 10 µM): 29% | viability, T/C (second compound 0.1 µM, first compound 0.0316 µM): 44.7% | viability, T/C (second compound 0.1 µM, first compound 0.1 µM): 64.6% | viability, T/C (second compound 0.1 µM, first compound 0.316 µM): 52.2% | viability, T/C (second compound 0.1 µM, first compound 1 µM): 56.8% | viability, T/C (second compound 0.1 µM, first compound 3.16 µM): 41.2% | viability, T/C (second compound 0.1 µM, first compound 10 µM): 21.3% | viability, T/C (second compound 0.316 µM, first compound 0.0316 µM): 59.5% | viability, T/C (second compound 0.316 µM, first compound 0.1 µM): 62% | viability, T/C (second compound 0.316 µM, first compound 0.316 µM): 50.9% | viability, T/C (second compound 0.316 µM, first compound 1 µM): 52.9% | viability, T/C (second compound 0.316 µM, first compound 3.16 µM): 28.4% | viability, T/C (second compound 0.316 µM, first compound 10 µM): 20.7% | viability, T/C (second compound 1 µM, first compound 0.0316 µM): 50.8% | viability, T/C (second compound 1 µM, first compound 0.1 µM): 55.6% | viability, T/C (second compound 1 µM, first compound 0.316 µM): 47.7% | viability, T/C (second compound 1 µM, first compound 1 µM): 29.2% | viability, T/C (second compound 1 µM, first compound 3.16 µM): 32.8% | viability, T/C (second compound 1 µM, first compound 10 µM): 9.5% | viability, T/C (second compound 3.16 µM, first compound 0.0316 µM): 46.8% | viability, T/C (second compound 3.16 µM, first compound 0.1 µM): 47.6% | viability, T/C (second compound 3.16 µM, first compound 0.316 µM): 37.1% | viability, T/C (second compound 3.16 µM, first compound 1 µM): 33.7% | viability, T/C (second compound 3.16 µM, first compound 3.16 µM): 29.7% | viability, T/C (second compound 3.16 µM, first compound 10 µM): 5.99% | viability, T/C (second compound 10 µM, first compound 0.0316 µM): 39.3% | viability, T/C (second compound 10 µM, first compound 0.1 µM): 30% | viability, T/C (second compound 10 µM, first compound 0.316 µM): 29.9% | viability, T/C (second compound 10 µM, first compound 1 µM): 28% | viability, T/C (second compound 10 µM, first compound 3.16 µM): 18.9% | viability, T/C (second compound 10 µM, first compound 10 µM): 2.83%

— PubChem BioAssay AID2060627 (Molecular Pharmacology Branch, DTP, NCI, 2025)
